The source of these data is ChEMBL document CHEMBL3232706, “SAR-studies on the importance of aromatic ring topologies in search for selective 5-HT(7) receptor ligands among phenylpiperazine hydantoin derivatives” (Eur J Med Chem, 2014).

Assay [1] concerns the target T1, Adrenergic receptor alpha-1 (Rattus norvegicus, UniProt P15823+P23944+P43140).
T1 sequence (P15823 whole entry): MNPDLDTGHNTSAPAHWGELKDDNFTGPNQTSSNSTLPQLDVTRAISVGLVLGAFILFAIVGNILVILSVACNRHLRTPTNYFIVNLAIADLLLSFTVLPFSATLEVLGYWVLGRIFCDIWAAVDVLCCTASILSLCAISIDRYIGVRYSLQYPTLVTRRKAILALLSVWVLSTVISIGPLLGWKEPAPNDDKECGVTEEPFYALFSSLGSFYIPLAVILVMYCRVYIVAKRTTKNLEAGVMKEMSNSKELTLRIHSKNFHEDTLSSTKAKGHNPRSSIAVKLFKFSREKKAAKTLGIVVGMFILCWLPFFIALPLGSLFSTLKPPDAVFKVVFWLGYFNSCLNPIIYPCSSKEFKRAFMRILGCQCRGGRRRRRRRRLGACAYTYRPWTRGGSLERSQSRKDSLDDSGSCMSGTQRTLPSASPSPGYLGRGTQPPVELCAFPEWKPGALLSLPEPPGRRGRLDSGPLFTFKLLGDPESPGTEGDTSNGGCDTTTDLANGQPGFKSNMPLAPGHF
T1 sequence (P23944 whole entry): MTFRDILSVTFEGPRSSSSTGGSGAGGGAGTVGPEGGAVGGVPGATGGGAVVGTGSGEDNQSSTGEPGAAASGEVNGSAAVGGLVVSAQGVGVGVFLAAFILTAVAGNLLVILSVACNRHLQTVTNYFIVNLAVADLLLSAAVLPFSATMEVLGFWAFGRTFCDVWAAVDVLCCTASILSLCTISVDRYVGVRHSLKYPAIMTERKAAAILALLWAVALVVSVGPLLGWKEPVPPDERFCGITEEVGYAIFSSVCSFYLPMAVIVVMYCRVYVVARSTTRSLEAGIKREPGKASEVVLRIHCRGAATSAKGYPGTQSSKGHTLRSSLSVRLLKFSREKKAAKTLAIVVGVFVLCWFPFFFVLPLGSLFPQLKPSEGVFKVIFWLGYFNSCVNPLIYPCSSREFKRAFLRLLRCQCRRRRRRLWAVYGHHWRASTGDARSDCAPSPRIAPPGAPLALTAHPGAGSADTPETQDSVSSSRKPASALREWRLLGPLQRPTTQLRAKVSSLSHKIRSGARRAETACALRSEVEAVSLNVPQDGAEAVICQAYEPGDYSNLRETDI
T1 sequence (P43140 whole entry): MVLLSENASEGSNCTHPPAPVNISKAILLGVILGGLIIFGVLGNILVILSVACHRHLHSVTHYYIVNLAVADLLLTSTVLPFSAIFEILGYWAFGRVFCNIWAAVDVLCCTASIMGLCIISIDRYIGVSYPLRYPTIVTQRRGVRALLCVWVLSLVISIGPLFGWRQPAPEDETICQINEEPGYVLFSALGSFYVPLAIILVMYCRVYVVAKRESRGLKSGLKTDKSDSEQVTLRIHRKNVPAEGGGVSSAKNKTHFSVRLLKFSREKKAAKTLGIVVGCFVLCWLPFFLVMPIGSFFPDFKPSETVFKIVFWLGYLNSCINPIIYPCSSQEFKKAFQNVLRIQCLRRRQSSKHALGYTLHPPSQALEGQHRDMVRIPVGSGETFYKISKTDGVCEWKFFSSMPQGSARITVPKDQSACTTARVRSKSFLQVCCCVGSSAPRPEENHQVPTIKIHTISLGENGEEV
Description: Displacement of [3H]prazosin from alpha1 adrenergic receptor in rat cerebral cortex after 30 mins by Microbeta scintillation counting analysis. In kind it is tissue-based. In general terms: Loss of bound radioactivity is the signal in a displacement assay; it reports binding, not function.

Assay [2] addresses T2, Alpha-1D adrenergic receptor (Rattus norvegicus, UniProt P23944).
T2 sequence (P23944 whole entry): T1 sequence (P23944 whole entry)
Put plainly: Antagonist activity at alpha1D adrenoceptor in Wistar (Krf:(WI) WU) rat endothelium-denuded thoracic aorta assessed as inhibition of noradrenaline-induced contraction after 30 mins. Conditions: read-out: pA2 (converted).

The target of assay [3] is T3, Alpha-1B adrenergic receptor (Mus musculus, UniProt P97717).
T3 sequence (P97717 whole entry): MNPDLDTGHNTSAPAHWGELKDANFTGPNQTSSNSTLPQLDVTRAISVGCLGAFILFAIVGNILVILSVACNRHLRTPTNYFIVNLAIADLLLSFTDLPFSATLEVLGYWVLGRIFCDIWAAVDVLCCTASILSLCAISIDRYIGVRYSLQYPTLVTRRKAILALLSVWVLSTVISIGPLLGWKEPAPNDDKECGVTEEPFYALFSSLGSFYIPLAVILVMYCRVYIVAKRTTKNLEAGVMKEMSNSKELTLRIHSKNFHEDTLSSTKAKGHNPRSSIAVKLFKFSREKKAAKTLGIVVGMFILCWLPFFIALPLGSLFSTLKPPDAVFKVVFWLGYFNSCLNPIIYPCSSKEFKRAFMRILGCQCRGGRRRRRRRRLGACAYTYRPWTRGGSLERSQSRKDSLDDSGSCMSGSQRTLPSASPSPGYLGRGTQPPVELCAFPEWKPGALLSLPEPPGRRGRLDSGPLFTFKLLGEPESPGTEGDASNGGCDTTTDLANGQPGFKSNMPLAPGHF
Put plainly: Antagonist activity at alpha1B-adrenoceptor in Albino swiss mouse spleen assessed as inhibition of noradrenaline-induced contraction after 30 mins. As to conditions: read-out: pA2 (converted).

Assay [4] addresses 5-hydroxytryptamine receptor 6 (Homo sapiens, UniProt P50406). Description: Displacement of [3H]-LSD from human recombinant 5-HT6 receptor expressed in HEK293 cell membrane after 1 hr by Microbeta scintillation counting analysis. In kind it is cell membranes.
Assay [5] addresses T4, 5-hydroxytryptamine receptor 1A (Homo sapiens, UniProt P08908).
T4 sequence (P08908 whole entry): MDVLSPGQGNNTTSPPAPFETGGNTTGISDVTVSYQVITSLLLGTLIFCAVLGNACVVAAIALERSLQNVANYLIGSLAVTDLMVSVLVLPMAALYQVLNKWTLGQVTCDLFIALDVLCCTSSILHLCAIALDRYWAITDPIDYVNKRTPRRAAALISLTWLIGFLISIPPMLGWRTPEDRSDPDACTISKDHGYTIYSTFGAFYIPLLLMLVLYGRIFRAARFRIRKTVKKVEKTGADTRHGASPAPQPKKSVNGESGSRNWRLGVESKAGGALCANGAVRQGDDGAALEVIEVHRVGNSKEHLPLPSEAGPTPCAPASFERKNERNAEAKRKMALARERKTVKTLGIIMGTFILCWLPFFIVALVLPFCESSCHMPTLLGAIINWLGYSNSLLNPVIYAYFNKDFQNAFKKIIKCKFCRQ
Put plainly: Displacement of [3H]-8-OH-DPAT from human recombinant 5-HT1A receptor expressed in HEK293 cell membrane after 1 hr by Microbeta scintillation counting analysis. Type of assay: cell membranes.

For assay [6], the target named is T5, Alpha-1A adrenergic receptor (Rattus norvegicus, UniProt P43140).
T5 sequence (P43140 whole entry): T1 sequence (P43140 whole entry)
Put plainly: Antagonist activity at alpha1A adrenoceptor in Wistar (Krf:(WI) WU) rat endothelium-denuded tail artery assessed as inhibition of noradrenaline-induced contraction after 30 mins. Conditions: read-out: pA2 (converted).

Assay [7] concerns the target 5-hydroxytryptamine receptor 7 (Homo sapiens, UniProt P34969). Description: Displacement of [3H]-5-CT from human recombinant 5-HT7 receptor expressed in HEK293 cell membrane after 1 hr by Microbeta scintillation counting analysis. In kind it is cell membranes.

Sequence of 5-hydroxytryptamine receptor 6 (P50406 whole entry): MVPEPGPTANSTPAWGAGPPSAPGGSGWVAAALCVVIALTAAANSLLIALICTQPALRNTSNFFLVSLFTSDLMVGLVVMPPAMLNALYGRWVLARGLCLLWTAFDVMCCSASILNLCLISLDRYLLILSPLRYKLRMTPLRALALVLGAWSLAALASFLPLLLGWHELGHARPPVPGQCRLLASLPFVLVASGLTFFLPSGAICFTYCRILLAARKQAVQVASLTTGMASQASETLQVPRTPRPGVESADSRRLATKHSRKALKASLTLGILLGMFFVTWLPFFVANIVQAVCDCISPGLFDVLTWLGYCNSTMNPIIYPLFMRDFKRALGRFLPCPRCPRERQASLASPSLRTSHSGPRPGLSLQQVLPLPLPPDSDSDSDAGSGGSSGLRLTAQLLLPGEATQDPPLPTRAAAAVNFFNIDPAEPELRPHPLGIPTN
Sequence of 5-hydroxytryptamine receptor 7 (P34969 whole entry): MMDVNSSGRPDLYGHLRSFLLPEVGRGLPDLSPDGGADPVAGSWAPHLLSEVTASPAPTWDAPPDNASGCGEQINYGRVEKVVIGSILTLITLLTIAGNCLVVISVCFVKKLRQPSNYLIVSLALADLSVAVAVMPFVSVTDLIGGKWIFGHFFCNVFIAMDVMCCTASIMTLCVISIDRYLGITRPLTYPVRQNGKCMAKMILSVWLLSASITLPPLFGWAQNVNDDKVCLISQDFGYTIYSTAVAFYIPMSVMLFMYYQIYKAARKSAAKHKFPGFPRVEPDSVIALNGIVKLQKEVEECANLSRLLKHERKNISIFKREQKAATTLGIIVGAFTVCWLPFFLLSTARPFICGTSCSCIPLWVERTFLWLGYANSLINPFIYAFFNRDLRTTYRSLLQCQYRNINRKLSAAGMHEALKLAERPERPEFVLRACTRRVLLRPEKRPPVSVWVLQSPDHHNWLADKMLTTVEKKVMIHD

With `CN1C(=O)N(CCCCCN2CCN(c3ccccc3)CC2)C(C)(c2ccccc2)C1=O.Cl` (stereo not drawn), the values for the Ki in assay [1], in assay [4] and in assay [5] were 7.3 nM, 9600 nM and 135 nM, respectively. For the same molecule, the Kb in assay [2] was 7.31 nM; in assay [3], 48.8 nM; in assay [6] it was 38.6 nM.

Turning to `CN1C(=O)N(CCCCCN2CCN(c3ccccc3F)CC2)C(C)(c2ccccc2)C1=O.Cl` (stereo not drawn), the Ki in assay [1] was 11.3 nM; in assay [7], 157 nM; in assay [4] it was 25500 nM; in assay [5], 124 nM. Further, the figures for the Kb in assay [2], in assay [3] and in assay [6] were 3.01 nM, 7.21 nM and 48.3 nM, respectively.

As usually defined, the Ki is a measure of affinity in units of concentration, obtained from inhibition or displacement.
